The values that follow are results of earlier work, collected in patent US11931445B2, “Composition comprising baicalin” (L'OREAL, priority 2016, dated 2024).

For data set [1] the following is noted: pH more than 6.5.

Regarding Baicalin, the “solubility in an aqueous medium” value is reported as “very slightly soluble”. In data set [1], the chemical stability result is “chemically unstable”.
